Results reported in US5705336A, “Assay for sensitivity of tumors to DNA-platinating chemotherapy” (The United States of America as represented by the …, priority 1995, dated 1998).

What was measured:
HuT 78 [1] = details: removed in 6 hrs following a 1 hr, 10 μM exposure, taken from ref. 26; cited from earlier work
H9 [2] = details: removed in 6 hrs following a 1 hr, 10 μM exposure, taken from ref. 26; cited from earlier work
MOLT-4 [3] = details: removed in 6 hrs following a 1 hr, 10 μM exposure, taken from ref. 26; cited from earlier work
[4] = system: three human T lymphocyte cell lines (HuT 78, H9 and MOLT-4); test: cisplatin sensitivity compared across the three T cell lines; type: cell-based; details: across HuT 78, H9 and MOLT-4
Procedure: (§1) The expression of total ERCC1 mRNA, exon VIII^- mRNA and XPA mRNA was examined in three human T lymphocyte cell lines (HuT 78, H9 and MOLT-4), using essentially the methods described in Example 1. The cells were obtained from the American Type Culture Collection, Rockville, Md. Cells were cultured in RPMI-1640 medium supplemented with 10% heat-inactivated calf serum, 100 μg/ml penicillin, 100 μg/ml streptomycin and 2 mM glutamine.
(§2) All cell lines were assayed for sensitivity to cisplatin by measurement of the inhibition of growth following 3 day cisplatin exposures ranging from 0.5 to 100 μM. Cell lines were seeded at an initial cell density of 5×10^4 cells/ml, After continuous contact with drug for 3 days, cell counts obtained by Coulter counter were expressed as a percentage of counts obtained from aliquots of control cells, cultured in the absence of drug. Cells treated similarly but for the absence of drug served as controls. IC50 values were assessed as those drug levels effecting a 50% reduction in cell number as compared to Untreated cells.

HuT 78 [5] = test: inhibition of growth of HuT 78 cells, 3 day continuous cisplatin exposure; type: cell-based, human; details: continuous exposure to cisplatin for 3 days, 50% reduction in cell number
Procedure: as §1, §2

H9 [6] = test: inhibition of growth of H9 cells, 3 day continuous cisplatin exposure; type: cell-based, human; details: continuous exposure to cisplatin for 3 days, 50% reduction in cell number
Procedure: as §1, §2

MOLT-4 [7] = test: inhibition of growth of MOLT-4 cells, 3 day continuous cisplatin exposure; type: cell-based, human; details: continuous exposure to cisplatin for 3 days, 50% reduction in cell number
Procedure: as §1, §2

H9 [8] = details: platination level that reduces CAT activity to 37% of control, taken from ref. 26; cited from earlier work
MOLT-4 [9] = details: platination level that reduces CAT activity to 37% of control, taken from ref. 26; cited from earlier work
HuT 78 [10] = details: platination level that reduces CAT activity to 37% of control, taken from ref. 26; cited from earlier work

N.N.[Cl][Pt][Cl] [cisplatin]
Cellular DNA Repair (pg Pt/μg DNA removed in 6 hrs) (HuT 78 [1]): 5.6 pg Pt/μg DNA | Cellular DNA Repair (pg Pt/μg DNA removed in 6 hrs) (H9 [2]): 3.9 pg Pt/μg DNA | Cellular DNA Repair (pg Pt/μg DNA removed in 6 hrs) (MOLT-4 [3]): 2.3 pg Pt/μg DNA | cisplatin sensitivity varied by [4]: about 3 fold | IC50 (HuT 78 [5]): 830 nM | IC50 (H9 [6]): 450 nM | IC50 (MOLT-4 [7]): 330 nM | Reactivation of platinated plasmid Bo (H9 [8]): 18 adducts/plasmid | Reactivation of platinated plasmid Bo (MOLT-4 [9]): 13 adducts/plasmid | Reactivation of platinated plasmid Bo (HuT 78 [10]): 22 adducts/plasmid
